Data as given in ChEMBL document CHEMBL1909046, “DrugMatrix in vitro pharmacology data”.

Tests used:
[1] = target: Protein phosphatase 3 catalytic subunit alpha (Homo sapiens, UniProt Q08209); set-up: species or system Escherichia coli;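 further: inhibition of calcineurin (PP2B) enzyme activity, measured with DiFMUP as the substrate; in other assays of this panel Not Active means under 50% inhibition at 10 µM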
[2] = target: T1, Alpha-1D adrenergic receptor (Homo sapiens, UniProt P25100); type: cell membranes, HEK293, Membrane; conditions: for Ki: read-out: Ki; on all read-outs here: in other assays of this panel Not Active means under 50% inhibition at 10 µM
T1 sequence (P25100 whole entry): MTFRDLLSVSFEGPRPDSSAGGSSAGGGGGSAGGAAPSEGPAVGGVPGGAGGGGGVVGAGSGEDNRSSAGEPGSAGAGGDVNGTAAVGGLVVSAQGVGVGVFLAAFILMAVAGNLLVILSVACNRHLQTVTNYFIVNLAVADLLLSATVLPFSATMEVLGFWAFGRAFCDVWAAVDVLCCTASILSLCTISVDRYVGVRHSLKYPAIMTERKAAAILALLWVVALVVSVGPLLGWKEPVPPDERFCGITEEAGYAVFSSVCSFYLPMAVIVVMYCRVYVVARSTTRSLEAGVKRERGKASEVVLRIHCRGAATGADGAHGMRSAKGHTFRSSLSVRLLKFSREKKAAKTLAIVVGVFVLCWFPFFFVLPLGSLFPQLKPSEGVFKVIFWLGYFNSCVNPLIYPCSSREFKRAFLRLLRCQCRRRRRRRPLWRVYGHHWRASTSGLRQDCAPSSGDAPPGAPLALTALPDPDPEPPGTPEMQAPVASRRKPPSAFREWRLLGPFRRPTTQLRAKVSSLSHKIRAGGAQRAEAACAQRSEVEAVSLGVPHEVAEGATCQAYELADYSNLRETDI

[3] = DRUGMATRIX: Tumor Necrosis Factor (TNF), Non-Selective radioligand binding (ligand: [125I] TNF-alpha); type: cell membranes, Membrane; conditions: u-937; Not Active = under 50% inhibition at 10 µM
[4] = target: Platelet-activating factor receptor (Homo sapiens, UniProt P25105); type: tissue-based; further: in other assays of this panel Not Active means under 50% inhibition at 10 µM
[5] = target: 5-hydroxytryptamine receptor 1B (Rattus norvegicus, UniProt P28564); type: cell membranes, Wistar, Cerebral cortex, Membrane; further: in other assays of this panel Not Active means under 50% inhibition at 10 µM
Thromboxane-A synthase = target: T2, Thromboxane-A synthase (Homo sapiens, UniProt P24557); assay: biochemical; type: tissue-based, Platelet
T2 sequence (P24557 whole entry): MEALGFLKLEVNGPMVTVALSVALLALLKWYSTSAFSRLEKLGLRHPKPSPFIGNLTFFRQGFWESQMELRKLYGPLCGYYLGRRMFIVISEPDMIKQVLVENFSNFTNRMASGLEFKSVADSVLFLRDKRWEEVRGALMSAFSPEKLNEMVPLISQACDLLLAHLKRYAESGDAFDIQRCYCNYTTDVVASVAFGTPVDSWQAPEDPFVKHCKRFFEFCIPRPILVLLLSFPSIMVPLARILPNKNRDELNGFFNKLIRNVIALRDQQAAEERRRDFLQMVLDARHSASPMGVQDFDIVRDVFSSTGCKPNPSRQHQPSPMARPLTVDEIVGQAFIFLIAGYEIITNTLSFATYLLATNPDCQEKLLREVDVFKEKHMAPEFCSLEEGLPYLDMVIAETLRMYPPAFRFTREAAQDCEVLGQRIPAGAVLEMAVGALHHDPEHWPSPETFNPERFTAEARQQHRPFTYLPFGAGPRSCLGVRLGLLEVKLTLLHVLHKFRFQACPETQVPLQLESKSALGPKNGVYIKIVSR

Platelet-activating factor receptor, sequence (P25105 whole entry): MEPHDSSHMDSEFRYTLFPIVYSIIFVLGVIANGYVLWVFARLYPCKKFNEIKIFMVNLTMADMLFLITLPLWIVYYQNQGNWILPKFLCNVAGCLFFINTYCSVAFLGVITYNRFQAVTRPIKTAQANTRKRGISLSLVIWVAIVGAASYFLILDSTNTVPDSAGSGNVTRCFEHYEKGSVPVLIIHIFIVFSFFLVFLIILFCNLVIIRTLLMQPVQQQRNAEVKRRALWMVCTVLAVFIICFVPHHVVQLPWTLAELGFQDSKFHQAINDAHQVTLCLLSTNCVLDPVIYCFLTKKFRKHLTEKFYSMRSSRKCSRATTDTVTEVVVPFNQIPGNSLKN
5-hydroxytryptamine receptor 1B, sequence (P28564 whole entry): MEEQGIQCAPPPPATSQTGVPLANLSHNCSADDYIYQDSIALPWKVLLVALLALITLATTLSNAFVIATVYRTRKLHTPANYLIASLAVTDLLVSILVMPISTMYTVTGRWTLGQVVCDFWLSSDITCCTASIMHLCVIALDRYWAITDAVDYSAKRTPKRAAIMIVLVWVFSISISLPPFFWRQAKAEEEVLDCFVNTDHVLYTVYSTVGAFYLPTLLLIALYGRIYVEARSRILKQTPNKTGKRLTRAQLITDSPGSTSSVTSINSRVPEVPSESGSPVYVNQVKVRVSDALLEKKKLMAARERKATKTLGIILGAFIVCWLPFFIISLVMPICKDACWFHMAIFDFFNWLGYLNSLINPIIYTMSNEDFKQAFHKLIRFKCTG

Row | SMILES | IC50 [1] | IC50 ([2]; read-out: IC50) [µM] | Ki [2] [µM] | IC50 [3] | Ki [3] | IC50 [4] | IC50 [5] | IC50 (Thromboxane-A synthase; platelet) | IC50 ([2]; hek293) | IC50 ([5]; read-out: IC50) [µM] | Ki ([5]; read-out: Ki) [µM] | IC50 (Thromboxane-A synthase; read-out: IC50) [µM]
1 | Cc1c(C)c2c(c(C)c1O)CCC(C)(CN1CCN(c3cc(N4CCCC4)nc(N4CCCC4)n3)CC1)O2 (centres undefined) | Not Active | 26.7 | 13.1 | Not Active | Not Active | Not Active | Not Active | Not Active | – | – | – | –
2 | COc1ccc(CCN(C)CCCC(C#N)(c2ccc(OC)c(OC)c2)C(C)C)cc1OC (centres undefined) | Not Active | – | – | Not Active | Not Active | Not Active | Not Active | Not Active | Not Active | – | – | –
3 | CC(C)Cc1ccc([C@@H](C)C(=O)O)cc1 [(R)-IBUPROPHEN] | Not Active | – | – | Not Active | Not Active | Not Active | Not Active | Not Active | Not Active | – | – | –
4 | CN(C)CCOC(c1ccccc1)c1ccccc1 [DIPHENHYDRAMINE] | Not Active | – | – | – | – | Not Active | Not Active | Not Active | Not Active | – | – | –
5 | Clc1ccc(COC(Cn2ccnc2)c2ccc(Cl)cc2Cl)cc1 (centres undefined) [ECONAZOLE] | Not Active | 8.9 | 4.37 | – | – | Not Active | – | – | – | 22 | 10 | 0.029
6 | CCN(CC)CCOc1ccc(/C(=C(/Cl)c2ccccc2)c2ccccc2)cc1 [ENCLOMIPHENE] | Not Active | – | – | – | – | Not Active | Not Active | Not Active | Not Active | – | – | –
7 | Fc1ccc(C(c2ccc(F)cc2)N2CCN(C/C=C/c3ccccc3)CC2)cc1 [FLUNARIZINE] | Not Active | 1.08 | 0.533 | – | – | Not Active | Not Active | Not Active | – | – | – | –
8 | CNCCC(Oc1ccc(C(F)(F)F)cc1)c1ccccc1 (centres undefined) [FLUOXETINE] | Not Active | – | – | – | – | Not Active | Not Active | Not Active | Not Active | – | – | –
9 | Cc1ccc(NC(=O)c2ccc(CN3CCN(C)CC3)cc2)cc1Nc1nccc(-c2cccnc2)n1 [IMATINIB] | Not Active | – | – | – | – | Not Active | Not Active | – | Not Active | – | – | 0.198
10 | CC(C)Oc1ccc2c(=O)c(-c3ccccc3)coc2c1 [IPRIFLAVONE] | Not Active | – | – | Not Active | Not Active | Not Active | Not Active | Not Active | Not Active | – | – | –
11 | CC(C)NCC(O)c1ccc(O)c(O)c1 (centres undefined) [ISOPROTERENOL] | Not Active | – | – | Not Active | Not Active | Not Active | Not Active | Not Active | Not Active | – | – | –
12 | CNC1(c2ccccc2Cl)CCCCC1=O (centres undefined) [KETAMINE] | Not Active | – | – | Not Active | Not Active | Not Active | Not Active | Not Active | Not Active | – | – | –
13 | N#Cc1ccc(C(c2ccc(C#N)cc2)n2cncn2)cc1 [LETROZOLE] | Not Active | – | – | Not Active | Not Active | Not Active | Not Active | Not Active | Not Active | – | – | –
14 | CCN1CCC[C@H]1CNC(=O)c1cc(S(N)(=O)=O)ccc1OC [LEVOSULPIRIDE] | Not Active | – | – | Not Active | Not Active | Not Active | Not Active | Not Active | Not Active | – | – | –
15 | CCN(CC)CC(=O)Nc1c(C)cccc1C [LIDOCAINE] | Not Active | – | – | Not Active | Not Active | Not Active | Not Active | Not Active | Not Active | – | – | –
16 | O=C1Nc2ccc(Cl)cc2C(c2ccccc2Cl)=NC1O (centres undefined) [LORAZEPAM] | Not Active | – | – | Not Active | Not Active | Not Active | Not Active | Not Active | Not Active | – | – | –
17 | CN[C@H]1CC[C@@H](c2ccc(Cl)c(Cl)c2)c2ccccc21 [SERTRALINE] | Not Active | – | – | – | – | Not Active | Not Active | Not Active | Not Active | – | – | –
